From patent US20260226060A1, “SALTS AND CRYSTALLINE FORMS OF COMPOUND A, METHODS OF PREPARATION, AND USES THEREOF” (SHENZHEN NEWDEL BIOTECH CO., LTD., priority 2023, published 2026)
Where two headings read alike, the source gives them in different places.

What was measured:
[1] = Polymorph screening: evaporating crystallization; type: physicochemical; conditions: for Results (quick volatilization −1 h) Wet sample: saturated solution (50° C. to room temperature)
[2] = Mechanical grinding stability (XRPD); type: physicochemical; conditions: ground in a mortar 5 minutes, samples at 2 and 5 minutes
[3] = Tableting stability (40 Mpa, 1 min; XRPD); type: physicochemical
physchem = conditions: water, thermodynamic from solid
[4] = Dynamic vapor sorption (DVS) hygroscopicity; type: physicochemical
Protocol: The water vapor sorption/desorption data of the samples were collected on a dynamic vapor sorption instrument (proUmid GmbH & Co. KG, Germany). Approximately 50-70 mg of sample was placed in a sample pan previously tared and the weight of the sample was measured accurately.

[5] = Polymorph screening: cooling crystallization; type: physicochemical; conditions: for solid obtained by cooling crystallization: solution in methanol
Protocol: It was filtered through a microfilm into clear vials. The solution was divided into two equal parts, one part of filtrate was placed in a refrigerator (5° C.) for rapid cooling, and the other part of filtrate was placed in a heating metal module with a power off and naturally cooled to room temperature.

[6] = Solid state stability at 60° C. (closed) and 40° C./75% RH (open), XRPD and HPLC purity; type: physicochemical
Protocol: (closed) and 40° C./75 RH (open) for 14 days, XRPD analysis and purity analysis were performed at various points of time, and solid-state stability was evaluated.
(§1) HPLC analysis was performed by using an Agilent HPLC 1260 series instrument and the HPLC methods used for solubility and stability determinations were shown in Tables 33 and 34, respectively.

[7] = Polymorph screening: trituration for 3 or 7 days at room temperature or 50° C.; type: physicochemical
[8] = Polymorph screening: antisolvent precipitation; type: physicochemical; conditions: for Results Wet sample: Vsolvent/Vanti-solvent 1/10
Protocol: An anti-solvent was gradually added thereto until a solid precipitated or a solvent volume of was added.

[9] = Solubility analysis in biological solvents (SGF, FaSSIF, FeSSIF) and water, with pH and XRPD of residual solid; type: physicochemical; conditions: for Solubility: 37° C., target 5 mg/mL
Protocol: as §1

[10] = Short-term physical stability of anhydrous crystal forms (40° C./75% RH, open, 1 day; XRPD); type: physicochemical
From the text: In addition to the mesylate crystalline form I, the other anhydrous crystalline forms were stable under high humidity conditions.

[11] = 60° C./closed and 40° C./75% RH, 7 days

new crystalline form by evaporating crystallization (XRPD) ([1]; quick and slow evaporation): no new crystalline form was obtained | Results (quick volatilization −1 h) Wet sample ([1]; solvent EtOH, batch 071-A2): amorphous | Results (quick volatilization −1 h) Wet sample ([1]; solvent MeOH, batch 071-A1): free base form 1 | crystal form after grinding (XRPD) [2]: not changed | crystallinity after grinding (XRPD) [2]: not obviously reduced | crystalline form after tableting (XRPD) [3]: unchanged | crystallinity after tableting (XRPD) [3]: slightly reduced | Solubility (physchem; Solubility): < 600 µg/mL | Solubility (physchem; solubility): < 5000 µg/mL | crystalline form after DVS analysis (XRPD) [4]: remained unchanged | hygroscopicity (DVS) [4]: substantially non-hygroscopic | DVS The weight gains by vapor sorption % ([4]; 80% RH): 0.2, 0.2% | DVS The weight gains by vapor sorption % ([4]; 90% RH): 0.2, 0.2% | DVS The weight gains by vapor sorption % ([4]; 90% RH, listed as fumarate crystalline form I): 0.2/0.2% | hygroscopicity (DVS) ([4]; listed as fumarate crystalline form I): almost non-hygroscopic | hygroscopicity (DVS) ([4]; listed as fumarate form crystalline I): almost non-hygroscopic | new crystalline form by cooling crystallization (XRPD) [5]: no new crystalline form was obtained | solid obtained by cooling crystallization ([5]; rapid cooling (5° C.)): dissociated into free base form 1 | solid obtained by cooling crystallization ([5]; slow cooling to room temperature): into free base form 2 | Purity in stability evaluation ([6]; 0 d): 99.14 Area % | Solid state stability-14 days ([6]; 60° C./Closed and 40° C./75% RH (Open), 14 days): physically and chemically stable | chemical purity, 7 days [6, 11]: remained unchanged | solid stability, 7 days [6, 11]: physicochemically stable | Purity in stability evaluation ([6]; 7 d-40° C./75% RH): 99.13 Area % | XRPD in stability evaluation ([6]; 7 d-40° C./75% RH): unchanged | Purity in stability evaluation ([6]; 7 d-60° C./capped): 99.14 Area % | XRPD in stability evaluation ([6]; 7 d-60° C./capped): unchanged | Purity in stability evaluation ([6]; 14 d-40° C./75% RH): 99.13 Area % | XRPD in stability evaluation ([6]; 14 d-40° C./75% RH): unchanged | Purity in stability evaluation ([6]; 14 d-60° C./capped): 99.13 Area % | XRPD in stability evaluation ([6]; 14 d-60° C./capped): unchanged | new crystalline form by antisolvent precipitation (XRPD) ([8]; from MeOH, THF or DMSO): no new crystalline form was obtained | Results Wet sample ([8]; solvent DMSO (100 mg/mL, 0.2 mL), anti-solvent EA, batch 073-C1): clear solution | Results Wet sample ([8]; solvent DMSO (100 mg/mL, 0.2 mL), anti-solvent IPAC, batch 073-C2): clear solution | Results Wet sample ([8]; solvent DMSO (100 mg/mL, 0.2 mL), anti-solvent MTBE, batch 073-C4): clear solution | Results Wet sample ([8]; solvent MeOH (Saturated, 0.3 mL), anti-solvent MTBE, batch 073-A2): clear solution | Results Wet sample ([8]; solvent THF (25 mg/mL, 0.4 mL), anti-solvent EA, batch 073-B1): clear solution | pH in solubility analysis ([9]; FaSSIF (medium pH 6.5), 0.5 h): 6.3 | pH in solubility analysis ([9]; FaSSIF (medium pH 6.5), 2 h): 6.2 | pH in solubility analysis ([9]; FaSSIF (medium pH 6.5), 24 h): 6.0 | XRPD of residual solid in solubility analysis ([9]; FaSSIF, 0.5 h): unchanged | Solubility ([9]; FaSSIF, 0.5 h): 0.011 mg/mL | Solubility ([9]; FaSSIF, 0.5 h, listed as fumarate crystalline form I): 0.011/0.011/ mg/mL | Solubility ([9]; FaSSIF, 2 h): 0.011 mg/mL | Solubility ([9]; FaSSIF, 2 h, listed as fumarate crystalline form I): 0.011/0.011/ mg/mL | XRPD of residual solid in solubility analysis ([9]; FaSSIF, 24 h): unchanged | Solubility ([9]; FaSSIF, 24 h): 0.022 mg/mL | pH in solubility analysis ([9]; FeSSIF (medium pH 5.0), 0.5 h): 5.0 | pH in solubility analysis ([9]; FeSSIF (medium pH 5.0), 2 h): 5.0 | pH in solubility analysis ([9]; FeSSIF (medium pH 5.0), 24 h): 5.0 | Solubility ([9]; FeSSIF, 0.5 h): 0.197 mg/mL | Solubility ([9]; FeSSIF, 0.5 h, listed as fumarate crystalline form I): 0.197 mg/mL | Solubility ([9]; FeSSIF, 2 h): 0.175 mg/mL | Solubility ([9]; FeSSIF, 2 h, listed as fumarate crystalline form I): 0.175 mg/mL | XRPD of residual solid in solubility analysis ([9]; FeSSIF, 24 h): unchanged | Solubility ([9]; FeSSIF, 24 h): 0.530 mg/mL | pH in solubility analysis ([9]; SGF (medium pH 1.2), 0.5 h): 1.3 | pH in solubility analysis ([9]; SGF (medium pH 1.2), 2 h): 1.4 | pH in solubility analysis ([9]; SGF (medium pH 1.2), 24 h): 1.3 | XRPD of residual solid in solubility analysis ([9]; SGF, 0.5 h): unchanged | Solubility ([9]; SGF, 0.5 h): <LOD | Solubility ([9]; SGF, 0.5 h, listed as fumarate crystalline form I): <LOD/<LOD/ | Solubility ([9]; SGF, 2 h): <LOD | Solubility ([9]; SGF, 2 h, listed as fumarate crystalline form I): <LOD/<LOD/ | XRPD of residual solid in solubility analysis ([9]; SGF, 24 h): unchanged | Solubility ([9]; SGF, 24 h): <LOD | Solid form of residual solids in solubility analysis ([9]; summary over water, SGF, FaSSIF, FeSSIF): remained unchanged | pH in solubility analysis ([9]; water (medium pH 6.6), 0.5 h): 4.6 | pH in solubility analysis ([9]; water (medium pH 6.6), 2 h): 4.3 | pH in solubility analysis ([9]; water (medium pH 6.6), 24 h): 4.2 | XRPD of residual solid in solubility analysis ([9]; water, 0.5 h): unchanged | Solubility ([9]; water, 0.5 h): <LOD | Solubility ([9]; water, 0.5 h, listed as fumarate crystalline form I): <LOD/<LOD/ | Solubility ([9]; water, 2 h): <LOD | Solubility ([9]; water, 2 h, listed as fumarate crystalline form I): <LOD/<LOD/ | XRPD of residual solid in solubility analysis ([9]; water, 24 h): unchanged | Solubility ([9]; water, 24 h): <LOD | XPRD Results after short-term physical stability [10]: unchanged
Structure (SMILES): Cc1c(C#Cc2cnc3ccc(N4CCC(O)CC4)nn23)cccc1C(=O)Nc1cc(Cl)cc(C(F)(F)F)c1 [Fumarate crystalline form I]
change in crystalline form, 7 days [6, 11]: No change in crystalline form was observed | new crystalline form by trituration (XRPD) ([7]; 30 mg/mL suspension, room temperature or 50° C., 3 or 7 days): no new fumarate crystalline form was formed | dissociation on trituration ([7]; in alcohol, water, 2-Me-THF, MTBE and acetone): dissociated into free base crystalline form VII
